The target in one assay is T1, human TLR7 (Homo sapiens, UniProt Q9NYK1).
T1 construct: host or cells: HEK-Blue cells
T1 sequence (Q9NYK1 27-1049): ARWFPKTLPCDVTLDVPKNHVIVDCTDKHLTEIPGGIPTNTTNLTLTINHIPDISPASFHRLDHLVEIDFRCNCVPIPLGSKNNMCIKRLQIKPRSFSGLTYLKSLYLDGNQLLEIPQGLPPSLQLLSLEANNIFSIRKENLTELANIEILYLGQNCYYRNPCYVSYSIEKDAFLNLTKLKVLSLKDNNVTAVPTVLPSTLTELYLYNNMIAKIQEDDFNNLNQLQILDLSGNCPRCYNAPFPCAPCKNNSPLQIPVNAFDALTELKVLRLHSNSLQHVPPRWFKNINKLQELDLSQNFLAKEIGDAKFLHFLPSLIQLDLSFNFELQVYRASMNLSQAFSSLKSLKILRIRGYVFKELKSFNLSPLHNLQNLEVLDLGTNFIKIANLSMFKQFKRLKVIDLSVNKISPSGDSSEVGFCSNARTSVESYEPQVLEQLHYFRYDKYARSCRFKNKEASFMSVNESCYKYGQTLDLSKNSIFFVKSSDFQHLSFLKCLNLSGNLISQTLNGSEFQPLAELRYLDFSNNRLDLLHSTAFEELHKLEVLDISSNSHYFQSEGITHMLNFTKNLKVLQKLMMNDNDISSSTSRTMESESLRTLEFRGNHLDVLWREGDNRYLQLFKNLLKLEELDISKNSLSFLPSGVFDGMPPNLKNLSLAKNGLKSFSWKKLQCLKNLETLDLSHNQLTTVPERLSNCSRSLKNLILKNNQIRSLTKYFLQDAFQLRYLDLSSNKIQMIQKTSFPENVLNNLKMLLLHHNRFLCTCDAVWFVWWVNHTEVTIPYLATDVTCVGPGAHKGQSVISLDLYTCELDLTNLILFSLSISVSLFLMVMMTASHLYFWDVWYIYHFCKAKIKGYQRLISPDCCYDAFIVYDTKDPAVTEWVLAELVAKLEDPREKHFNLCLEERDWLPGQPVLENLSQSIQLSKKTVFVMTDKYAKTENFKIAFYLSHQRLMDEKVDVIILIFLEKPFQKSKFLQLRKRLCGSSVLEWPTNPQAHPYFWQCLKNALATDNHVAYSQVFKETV
The assay is described as follows: TLR7 inhibition reporter assay (HEK-Blue SEAP). The note with it: HEK-Blue cells overexpressing human TLR7, gardiquimod 7.5 μM, 22 hour incubation. It is filed as cell-based. An outline of the steps:
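In this cell reporter format, test compounds at 0.05 nM-50 μM final incubate 22 h with seeded cells (TLR7 15000, TLR8 20,000 per well). SEAP read-out by HEK-Blue Detection medium yields % inhibition relative to agonist/DMSO and known-inhibitor wells.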
For orientation: A reporter such as luciferase makes a cellular process visible.

The next assay has as its target T2, human TLR9 (Homo sapiens, UniProt Q9NR96).
T2 construct: host or cells: HEK-Blue cells
T2 sequence (Q9NR96 26-1032): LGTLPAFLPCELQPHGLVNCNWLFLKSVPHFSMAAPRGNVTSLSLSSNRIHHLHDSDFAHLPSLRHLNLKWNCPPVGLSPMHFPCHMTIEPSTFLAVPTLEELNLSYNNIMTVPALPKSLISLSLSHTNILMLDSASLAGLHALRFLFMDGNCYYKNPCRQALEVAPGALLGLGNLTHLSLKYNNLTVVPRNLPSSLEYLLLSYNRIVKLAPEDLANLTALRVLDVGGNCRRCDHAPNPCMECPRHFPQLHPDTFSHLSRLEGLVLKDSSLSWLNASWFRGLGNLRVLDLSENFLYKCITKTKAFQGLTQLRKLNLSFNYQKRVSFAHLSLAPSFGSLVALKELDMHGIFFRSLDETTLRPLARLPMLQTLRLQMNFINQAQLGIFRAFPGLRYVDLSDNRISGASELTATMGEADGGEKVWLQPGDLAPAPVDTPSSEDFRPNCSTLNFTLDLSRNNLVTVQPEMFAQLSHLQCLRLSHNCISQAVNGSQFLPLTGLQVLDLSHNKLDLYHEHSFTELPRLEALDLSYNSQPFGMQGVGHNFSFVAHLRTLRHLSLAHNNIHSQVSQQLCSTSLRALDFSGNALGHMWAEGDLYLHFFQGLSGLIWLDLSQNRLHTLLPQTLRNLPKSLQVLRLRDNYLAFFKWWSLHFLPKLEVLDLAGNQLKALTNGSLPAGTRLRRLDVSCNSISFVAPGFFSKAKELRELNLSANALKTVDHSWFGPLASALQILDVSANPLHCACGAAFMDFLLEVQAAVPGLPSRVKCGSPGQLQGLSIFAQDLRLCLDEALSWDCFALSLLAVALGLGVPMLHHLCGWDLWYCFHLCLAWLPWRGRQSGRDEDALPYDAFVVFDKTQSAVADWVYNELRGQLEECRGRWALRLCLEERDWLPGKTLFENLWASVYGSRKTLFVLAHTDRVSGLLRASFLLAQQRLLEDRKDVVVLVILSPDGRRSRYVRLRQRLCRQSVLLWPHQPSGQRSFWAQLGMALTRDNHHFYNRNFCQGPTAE
In words: TLR9 inhibition reporter assay (HEK-Blue SEAP). The note with it: HEK-Blue cells overexpressing human TLR9, ODN2006 5 nM, 22 hour incubation. It is filed as cell-based. The procedure, abridged: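 Dose–response from 0.05 nM to 50 μM was run in HEK-Blue human TLR7, TLR8 and TLR9 reporter cells. After 30 min at room temperature with compound, ligand was added (TLR7 gardiquimod 7.5 μM; TLR8 R848 15.9 μM; TLR9 ODN2006 5 nM) and SEAP measured next day, at 22 h.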

As to `COc1cc(-c2cc3[nH]c(=O)n([C@@H]4CCCN(CC(=O)N(C)C)C4)c3cc2C)cn2ncnc12` [Example 99, (R)-2-(3-(5-(8-methoxy-[1,2,4]triazolo[1,5-a]pyridin-6-yl)-6-methyl-2-oxo-2,3-dihydro-1H-benzo[d]imidazol-1-yl)piperidin-1-yl)-N,N-dimethylacetamide], the IC50 is 391 nM on human TLR7 and greater than 50000 nM against human TLR9.

With `CCN1CCC[C@@H](n2c(=O)[nH]c3cc(-c4cc(OC)c5ncnn5c4)c(C(C)C)cc32)C1` [Example 138, (R)-1-(1-ethylpiperidin-3-yl)-6-isopropyl-5-(8-methoxy-[1,2,4]triazolo[1,5-a]pyridin-6-yl)-1,3-dihydro-2H-benzo[d]imidazol-2-one], the concentration for half-maximal inhibition (IC50) at human TLR7 is 2.73 nM; against human TLR9 it was 17900 nM.

`COc1cc(-c2cc3[nH]c(=O)n([C@@H]4CCCN(C5CCOCC5)C4)c3cc2C(C)C)cn2ncnc12` [Example 143, (R)-6-isopropyl-5-(8-methoxy-[1,2,4]triazolo[1,5-a]pyridin-6-yl)-1-(1-(tetrahydro-2H-pyran-4-yl)piperidin-3-yl)-1,3-dihydro-2H-benzo[d]imidazol-2-one]: the IC50 came to 3.35 nM at human TLR7 and 10200 nM at human TLR9.

On to `COCCN1CCC[C@@H](n2c(=O)[nH]c3cc(-c4cc(C)c5ncnn5c4)c(C)cc32)C1` [Example 97, (R)-1-(1-(2-methoxyethyl)piperidin-3-yl)-6-methyl-5-(8-methyl-[1,2,4]triazolo[1,5-a]pyridin-6-yl)-1,3-dihydro-2H-benzo[d]imidazol-2-one], for which the IC50 against human TLR7 stood at 38.8 nM; against human TLR9 it was 19100 nM.

Regarding `CCCN1CCC[C@H](n2c(=O)[nH]c3cc(-c4cc(OC)c5ncnn5c4)c(C(C)C)cc32)C1` [Example 121, (S)-6-isopropyl-5-(8-methoxy-[1,2,4]triazolo[1,5-a]pyridin-6-yl)-1-(1-propylpiperidin-3-yl)-1,3-dihydro-2H-benzo[d]imidazol-2-one], the IC50 against human TLR7 stood at 28.6 nM; against human TLR9, 13600 nM.

`COc1cc(-c2cc3[nH]c(=O)n(C4CCN(C5CCOC5)CC4)c3cc2C(C)C)cn2ncnc12` (centres unmarked) [Example 162, 6-isopropyl-5-(8-methoxy-[1,2,4]triazolo[1,5-a]pyridin-6-yl)-1-(1-(tetrahydrofuran-3-yl)piperidin-4-yl)-1,3-dihydro-2H-benzo[d]imidazol-2-one]: the IC50 against human TLR7 is 73 nM; against human TLR9 it was greater than 50000 nM.

Take `Cc1cc2c(cc1-c1cc(C)c3ncnn3c1)[nH]c(=O)n2[C@H]1CCCN(C(=O)CN(C)C)C1` [Example 103, (S)-1-(1-(dimethylglycyl)piperidin-3-yl)-6-methyl-5-(8-methyl-[1,2,4]triazolo[1,5-a]pyridin-6-yl)-1,3-dihydro-2H-benzo[d]imidazol-2-one]: the IC50 on human TLR7 amounted to 215 nM; on human TLR9, 4720 nM.

Regarding `COc1cc(-c2cc3[nH]c(=O)n(C4CCN(C(C)C)CC4)c3cc2C)cn2ncnc12` [Example 10, 1-(1-isopropylpiperidin-4-yl)-5-(8-methoxy-[1,2,4]triazolo[1,5-a]pyridin-6-yl)-6-methyl-1,3-dihydro-2H-benzo[d]imidazol-2-one], the IC50 was 63.2 nM at human TLR7 and 354 nM against human TLR9.

`COc1cc(-c2cc3[nH]c(=O)n([C@H]4CCCN(CCC(C)C)C4)c3cc2C(C)C)cn2ncnc12` [Example 132, (S)-1-(1-isopentylpiperidin-3-yl)-6-isopropyl-5-(8-methoxy-[1,2,4]triazolo[1,5-a]pyridin-6-yl)-1,3-dihydro-2H-benzo[d]imidazol-2-one]: the figures for the IC50 at human TLR7 and at human TLR9 were 18.3 nM and 11000 nM, respectively.

Take `COc1cc(-c2cc3[nH]c(=O)n([C@@H]4CCCN(C5COC5)C4)c3cc2C(F)(F)F)cn2ncnc12` [Example 113, (R)-5-(8-methoxy-[1,2,4]triazolo[1,5-a]pyridin-6-yl)-1-(1-(oxetan-3-yl)piperidin-3-yl)-6-(trifluoromethyl)-1,3-dihydro-2H-benzo[d]imidazol-2-one]: the IC50 against human TLR7 was 488 nM; against human TLR9, greater than 50000 nM.

For the compound `Cc1cc2c(cc1-c1cc(C)c3ncnn3c1)[nH]c(=O)n2[C@@H]1CCCN(CC(=O)N(C)C)C1` [Example 95, (R)—N,N-dimethyl-2-(3-(6-methyl-5-(8-methyl-[1,2,4]triazolo[1,5-a]pyridin-6-yl)-2-oxo-2,3-dihydro-1H-benzo[d]imidazol-1-yl)piperidin-1-yl)acetamide], the IC50 was 117 nM against human TLR7 and 14600 nM against human TLR9.

Regarding `COc1cc(-c2cc3[nH]c(=O)n([C@@H]4CCCN(CC(C)(C)C)C4)c3cc2C(C)C)cn2ncnc12` [Example 153, (R)-6-isopropyl-5-(8-methoxy-[1,2,4]triazolo[1,5-a]pyridin-6-yl)-1-(1-neopentylpiperidin-3-yl)-1,3-dihydro-2H-benzo[d]imidazol-2-one], the IC50 worked out at 0.58 nM at human TLR7 and 13100 nM against human TLR9.

For `COc1cc(-c2cc3[nH]c(=O)n([C@H]4CCCN(C5COC5)C4)c3cc2C(C)C)cn2ncnc12` [Example 123, (S)-6-isopropyl-5-(8-methoxy-[1,2,4]triazolo[1,5-a]pyridin-6-yl)-1-(1-(oxetan-3-yl)piperidin-3-yl)-1,3-dihydro-2H-benzo[d]imidazol-2-one], the IC50 at human TLR7 is 125 nM; at human TLR9, greater than 50000 nM.

Consider `CCN1CCC(n2c(=O)[nH]c3cc(-c4cc(OC)c5ncnn5c4)c(C)cc32)CC1` [Example 9, 1-(1-ethylpiperidin-4-yl)-5-(8-methoxy-[1,2,4]triazolo[1,5-a]pyridin-6-yl)-6-methyl-1,3-dihydro-2H-benzo[d]imidazol-2-one], for which the IC50 on human TLR7 was found to be 70.8 nM; on human TLR9, 638 nM.

As for `CCCN1CCC(n2c(=O)[nH]c3cc(-c4cc(C)c5ncnn5c4)c(C)cc32)CC1` [Example 7, 6-methyl-5-(8-methyl-[1,2,4]triazolo[1,5-a]pyridin-6-yl)-1-(1-propylpiperidin-4-yl)-1,3-dihydro-2H-benzo[d]imidazol-2-one], the IC50 on human TLR7 stood at 41.8 nM; against human TLR9, 1330 nM.

`CCCN1CCC[C@@H](n2c(=O)[nH]c3cc(-c4cc(OC)c5ncnn5c4)c(C(F)(F)F)cc32)C1` [Example 115, (R)-5-(8-methoxy-[1,2,4]triazolo[1,5-a]pyridin-6-yl)-1-(1-propylpiperidin-3-yl)-6-(trifluoromethyl)-1,3-dihydro-2H-benzo[d]imidazol-2-one]: the IC50 on human TLR7 was 34.1 nM; on human TLR9, 13400 nM.

As usually defined, the IC50 is the concentration at which inhibition is half-maximal. A higher IC50 goes with a need for much substance.

For the origin of these results see US12187723B2 (BRISTOL-MYERS SQUIBB COMPANY, priority 2019, dated 2025).
